Experimental data taken from paper PMC9521028, “Lengthening the Guanidine–Aryl Linker of Phenylpyrimidinylguanidines Increases Their Potency as Inhibitors of FOXO3-Induced Gene Transcription” (ACS Omega, 2022).
≈ marks a conversion by molar mass, not a printed value. Entries after “also recorded” stand apart in the source; their conditions may differ.

Columns and labels:
[1] = Estimation of compound solubility in water (saturated solution, UV-vis); assay type: physicochemical; details: for solubility at 48 h: aqueous buffer, thermodynamic from solid, 20 mM phosphate (pH 6.5) and 50 mM KCl buffer at 23 °C
Protocol: To estimate the solubility, we prepared saturated solutions of the compounds by adding 5 mg of each selected compound to 700 μL of 20 mM phosphate buffer (pH 6.5) containing 50 mM KCl. After 48 h of gentle agitation at room temperature (RT), the solutions were spun down, and the supernatant was filtered through 0.2 μm of SPARTAN 13/0.2 RC filter units (Merck KgaA, Darmstadt, Germany) and diluted 100–200× in the same phosphate buffer. The diluted solutions were transferred into the quartz cuvette, recording UV–vis absorption spectra in the range from 200 to 600 nm on a UV-1800 UV/visible scanning spectrophotometer (Shimadzu, Kyoto, Japan) at room temperature. The compound concentrations were estimated by the single point calibration using the absorption at wavelengths higher than 240 nm outside of DMSO absorption of 2000× diluted 50 mM DMSO-dissolved stock solution in phosphate buffer.

FOXO3 = system: FOXO3; parameters: method as in PMID 31591479, PMID 31789593; details: inhibit the transcriptional program of FOXO3; cited from earlier work
[2] = target: T1, recombinant DNA-binding domain of human FOXO3 (residues 156–269, FOXO3-DBD) (Homo sapiens, UniProt O43524); assay: Fluorescence polarization (FP) assay of FOXO3-DBD binding to FAM-labeled IRE dsDNA; details: compound 1 μM; 125 nM FOXO3-DBD, 25 nM FAM-dsDNA
T1 construct: DNA encoding human FOXO3-DBD (residues 156–269); GST (N, cleaved yes); made in house; host or cells: E. coli BL21(DE3)
T1 sequence (O43524 156-269): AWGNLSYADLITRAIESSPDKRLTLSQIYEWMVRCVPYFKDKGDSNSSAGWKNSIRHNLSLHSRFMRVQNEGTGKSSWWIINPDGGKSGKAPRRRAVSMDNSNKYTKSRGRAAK
Description: The FOXO3 inhibition potency of the phenylpyrimidinylguanidine derivatives was first examined in a fluorescence polarization (FP) assay using the recombinant DNA-binding domain of human FOXO3 (residues 156–269, denoted as FOXO3-DBD) and FAM-labeled dsDNA containing the insulin-response element (IRE) consensus motif (Figure S1).
The final concentration of DMSO in all mixtures was adjusted to 5% (v/v). Positive (only assay buffer and FAM-labeled oligonucleotide) and negative (FOXO3-DBD and FAM-labeled oligonucleotide) controls were analyzed on each plate. Milli polarization values (mP) were measured at an excitation wavelength of 485 nm and an emission wavelength of 530 nm.

[3] = system: FOXO3-induced apoptotic cell death in SH-EP/FOXO3 neuroblastoma cells; assay: Resazurin early cell death evaluation assay; assay type: cell-based; details: for IC50: Neuroblastoma cell, 100 nM 4OHT, 24 h, approximate, toxicity prevented accurate determination, read-out: IC50, inhibition of FOXO3-induced cell death; for IC50 / concentration above which the compound is toxic (spontaneous cell death): SH-EP/FOXO3 cells; for fold lower IC50 than that of 5ca: resazurin assay, ratio to 5ca IC50 of ∼8 μM
Protocol: Moreover, we also attempted to determine the IC50 values of 5ci, 5cj, and 5db using a resazurin early cell death evaluation assay in cells expressing a conditional FOXO3 allele that triggers apoptotic cell death upon activation.
Neuroblastoma cells SH-EP/FOXO3 were seeded into 96-well plates and treated with concentrations 0.05, 0.1, 0.2, 0.39, 0.78, 1.56, 3.125, 6.25, 12.5, 18.75, and 25 μM of 5ca and its derivatives 30 min before activating ectopic FOXO3 by 100 nM 4OHT. For 5ca derivatives, concentrations above 3.125 μM had to be excluded from the analysis due to spontaneous cell death induction. Resazurin salt (Sigma-Aldrich s.r.o., St. Louis, Missouri) was diluted to a final concentration of 0.01% (wt/vol), and 20 μL of this dilution was added to 200 μL of the cell culture in each well 24 h after FOXO3 activation. Resazurin is reduced in viable cells to red-fluorescent resoflurin, which was quantified in a Hidex Chameleon—Multilabel Microplate Reader (Hidex, Turku, Finland) at filter settings 544 nm Ex/616 nm Em.

[4] = system: FOXO3 binding to the promoter region of DEPP1 in SH-EP/FOXO3 cells; assay: DEPP1-luciferase reporter assay of FOXO3 transcriptional activity; assay type: cell-based; details: for potency in blocking FOXO3 binding to the promoter region of DEPP1: 25 and 12.5 μM compound; for potency in blocking FOXO3 binding to the promoter region of DEPP1, compared with 5ca: initial screen, 50 μM compound; for inhibitory potency on target gene activation by FOXO3 (in words): summary of the reporter data, Figures 2, S2, S3; for efficiency of blocking FOXO3 binding to the promoter region of DEPP1: lower concentrations, down to 0.78 μM
Protocol: (§1) The ability of these compounds to inhibit FOXO3 transcriptional activity was further examined by assessing their effect on FOXO3 binding to the promoter region of decidual protein induced by progesterone 1 (DEPP1) after transfecting a DEPP1-luciferase reporter plasmid into SH-EP neuroblastoma cells stably expressing a 4-hydroxy-tamoxifen (4OHT)-regulated FOXO3(A3)ERtm transgene. […] In parallel, the toxicity of the compounds was tested by assessing their effect on endogenous DEPP1 and actin promoters in SH-EP cells.
Transcriptional activation of the DEPP1 promoter by conditional FOXO3 was assessed after transfection of a DEPP1-luciferase reporter plasmid pGS c10orf10 Prom wt (DEPP1-LUC)[20] into SH-EP/FOXO3 cells using the JetPrime reagent (Polyplus, Berkeley). After 24 h of transfection, mTFP fluorescent protein expression from a cotransfected expression vector was assessed by live cell fluorescence microscopy to verify equal transfection rates before seeding cells into 24-well plates. After 48 h of transfection, the cells were pretreated with indicated concentrations of each compound (30 min) before adding 100 nM 4-hydroxy-tamoxifen (4OHT) for 3 h to activate ectopic FOXO3. Firefly-luciferase was analyzed using the Luciferase Assay System (Promega, Madison). Luminescence intensity was measured in a Hidex Chameleon—Multilabel Microplate Reader (Hidex, Turku, Finland).

[5] = system: endogenous DEPP1 and actin promoters in SH-EP cells; assay: Toxicity control: endogenous DEPP1 and actin promoter luciferase reporters; assay type: cell-based
Protocol: as §1
For this purpose, 2 × 10^6 SH-EP cells were transfected with either a DEPP1-LUC-reporter plasmid or an actin-LUC reporter plasmid using JetPrime reagent (Polyplus, Berkeley). Actin-LUC was constructed by inserting a 1.3 kb fragment of the chicken β actin promoter into pGL3-luc reporter vector (Promega, Madison). After 24 h of transfection, the cells were seeded into 24-well plates. After another 24 h, the cells were pretreated with indicated concentrations of compound for 3.5 h. Firefly-luciferase was analyzed using the Luciferase Assay System (Promega, Madison). Luminescence intensity was measured in a Hidex Chameleon—Multilabel Microplate Reader (Hidex, Turku, Finland).

| SMILES | solubility at 48 h [1] [µM] | solubility in water (in words) [1] | potency in blocking FOXO3 binding to the promoter region of DEPP1 [4] | potency in blocking FOXO3 binding to the promoter region of DEPP1, compared with 5ca [4] | inhibitory potency on target gene activation by FOXO3 (in words) [4] | further results |
| --- | --- | --- | --- | --- | --- | --- |
| CCCOc1ccc(NC(=N)Nc2nc(C)cc(O)n2)cc1 [5aa, 1-(4-Hydroxy-6-methylpyrimidin-2-yl)-3-(4-propoxyphenyl)guanidine] | 100 (≈ 30.1 µg/mL) |  |  |  |  |  |
| CCOc1cc(CC(=O)N[C@@H](CC(C)C)c2ccccc2N2CCCCC2)ccc1C(=O)O [repaglinide] |  |  |  |  |  | concentration range of FOXO3 inhibition in cancer cells (FOXO3): low micromolar range |
| CCCOc1ccc(NC(=N)Nc2nc(C)cc(C)n2)cc1 [5ca, 1-(4,6-Dimethylpyrimidin-2-yl)-3-(4-propoxyphenyl)guanidine] | 2000 (≈ 599 µg/mL) |  |  |  |  | reduction of FOXO3-DBD binding to FAM-IRE dsDNA [2]: approximately 20%; IC50 [3]: ~8000 nM; concentration above which the compound is toxic (spontaneous cell death) [3]: higher than 25 μM; concentration range of FOXO3 inhibition in cancer cells (FOXO3): low micromolar range |
| CCCOc1ccc(NC(=N)Nc2nc(C)cc(NCCc3ccccc3)n2)cc1 [5db, 1-(4-Methyl-6-(phenethylamino)pyrimidin-2-yl)-3-(4-propoxyphenyl)guanidine] | 300 (≈ 121 µg/mL) | low solubility; also recorded: very low solubility | the most potent compounds | more potent than 5ca | strongest inhibitor | efficiency of blocking FOXO3 binding to the promoter region of DEPP1 [4]: more efficiently than 5cg, 5da, and 5dc; toxicity compared with other derivatives ([5]; higher concentrations, Figure 2): more toxic than 5ci and 5cj at higher concentrations; IC50 [3]: ~500 nM; concentration above which the compound is toxic (spontaneous cell death) [3]: higher than 4 μM; fold lower IC50 than that of 5ca [3]: 8–16 × |
| CCCOc1ccc(NC(=N)Nc2nc(C)cc(Cl)n2)cc1 [5ba, 1-(4-Chloro-6-methylpyrimidin-2-yl)-3-(4-propoxyphenyl)guanidine] | 20000 (≈ 6400 µg/mL) |  |  | more potent than 5ca |  |  |
| Cc1cc(C)nc(NC(=N)NCc2ccccc2)n1 [5cc, 1-Benzyl-3-(4,6-dimethylpyrimidin-2-yl)guanidine] | 10000 (≈ 2550 µg/mL) | significantly increased solubility in water |  | less potent FOXO3 inhibitors than 5ca | lower ability to inhibit FOXO3 |  |
| Cc1cc(C)nc(NC(=N)NCc2ccc(F)cc2)n1 [5ch, 1-(4,6-Dimethylpyrimidin-2-yl)-3-(4-fluorobenzyl)guanidine] | 6000 (≈ 1640 µg/mL) | sufficient solubility in water |  | less potent FOXO3 inhibitors than 5ca | did not increase the inhibitory potency |  |
| Cc1cc(C)nc(NC(=N)NCc2cccc3ccccc23)n1 [5ci, 1-(4,6-Dimethylpyrimidin-2-yl)-3-(naphthalen-1-ylmethyl)guanidine] | 700 (≈ 214 µg/mL) | low solubility | the most potent compounds | more potent than 5ca | increased FOXO3 inhibition | efficiency of blocking FOXO3 binding to the promoter region of DEPP1 [4]: more efficiently than 5cg, 5da, and 5dc; inhibition of FOXO3-mediated transcription ([4]; lowest concentration tested, 0.78 μM): significantly inhibited; effect on endogenous DEPP1 and actin promoters (toxicity markers) ([5]; 0.78 μM, SH-EP cells): without any effect; IC50 [3]: ~500 nM; concentration above which the compound is toxic (spontaneous cell death) [3]: higher than 4 μM; fold lower IC50 than that of 5ca [3]: 8–16 × |
| CC1(C)[C@@H](OC(=O)CCC(=O)O)CC[C@]2(C)[C@H]3C(=O)C=C4[C@@H]5C[C@@](C)(C(=O)O)CC[C@]5(C)CC[C@@]4(C)[C@]3(C)CC[C@@H]12 [carbenoxolone] |  |  |  |  |  | concentration range of FOXO3 inhibition in cancer cells (FOXO3): low micromolar range |
| CCCOc1ccc(NC(=N)Nc2nc(C)cc(NCc3ccccc3)n2)cc1 [5da, 1-(4-(Benzylamino)-6-methylpyrimidin-2-yl)-3-(4-propoxyphenyl)guanidine] | 200 (≈ 78.1 µg/mL) |  | the most potent compounds | more potent than 5ca |  |  |
| Cc1ccc(CNC(=N)Nc2nc(C)cc(C)n2)cc1 [5cd, 1-(4,6-Dimethylpyrimidin-2-yl)-3-(4-methylbenzyl)guanidine] | 7000 (≈ 1890 µg/mL) | improved solubility |  |  | did not increase the inhibitory potency |  |

The next lines start with results.

| solubility at 48 h [1] [µM] | solubility in water (in words) [1] | SMILES | potency in blocking FOXO3 binding to the promoter region of DEPP1 [4] | potency in blocking FOXO3 binding to the promoter region of DEPP1, compared with 5ca [4] | inhibitory potency on target gene activation by FOXO3 (in words) [4] | further results |
| --- | --- | --- | --- | --- | --- | --- |
| 1700 (≈ 606 µg/mL) | low solubility | CCCCNc1cc(C)nc(NC(=N)Nc2ccc(OCCC)cc2)n1 [5dc, 1-(4-(Butylamino)-6-methylpyrimidin-2-yl)-3-(4-propoxyphenyl)guanidine] | the most potent compounds | more potent than 5ca | slightly lower inhibitory efficacy than 5cj, 5ci, and 5db |  |
| 200 (≈ 62.3 µg/mL) | limited the solubility | Cc1cc(C)nc(NC(=N)NCc2ccc(C(C)(C)C)cc2)n1 [5cg, 1-(4-(tert-Butyl)benzyl)-3-(4,6-dimethylpyrimidin-2-yl)guanidine] | the most potent compounds | more potent than 5ca | increased FOXO3 inhibition |  |
| 4000 (≈ 1080 µg/mL) |  | Cc1cccc(CNC(=N)Nc2nc(C)cc(C)n2)c1 [5ce, 1-(4,6-Dimethylpyrimidin-2-yl)-3-(3-methylbenzyl)guanidine] |  | less potent FOXO3 inhibitors than 5ca | did not increase the inhibitory potency |  |
| 4000 (≈ 965 µg/mL) | insufficient solubility in water | Cc1cc(C)nc(NC(=N)Nc2ccccc2)n1 [5cb, 1-(4,6-Dimethylpyrimidin-2-yl)-3-phenylguanidine] |  | less potent FOXO3 inhibitors than 5ca | lower ability to inhibit FOXO3 |  |
| 2000 (≈ 539 µg/mL) |  | Cc1cc(C)nc(NC(=N)NCc2ccccc2C)n1 [5cf, 1-(4,6-Dimethylpyrimidin-2-yl)-3-(2-methylbenzyl)guanidine] |  |  | did not increase the inhibitory potency |  |
